Measurements reported in patent US20020150540A1, “Allergen neutralization compositions containing aluminum ions” (priority 2001, published 2002).

Legend:
Der f 1 = target: T1, Der f 1 (Dermatophagoides farinae, UniProt P16311); experiment: ELISA efficacy determination protocol, allergen neutralization versus Der f 1; type: biochemical; details: for % of Allergen Neutralized: Versus Der f 1, 0.26 wt.% active ion in composition before sample preparation, pH 3.5, normalized to water control
T1 construct: Add 1.0 ml of 20 ug/ml Dermatophagoides farinae mite extract; from tissue; host or cells: Dermatophagoides farinae mite extract (crude)
T1 sequence (P16311 99-321): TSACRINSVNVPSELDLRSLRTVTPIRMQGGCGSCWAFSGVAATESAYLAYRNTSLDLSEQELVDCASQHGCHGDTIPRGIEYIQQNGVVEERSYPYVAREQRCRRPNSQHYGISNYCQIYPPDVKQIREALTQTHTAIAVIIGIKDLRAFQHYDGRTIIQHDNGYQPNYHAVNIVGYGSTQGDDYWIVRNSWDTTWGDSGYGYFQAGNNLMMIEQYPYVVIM
Excerpt: (§1) The efficacy of an allergen neutralization composition can be determined by the ELISA protocol. Enzyme-linked immunosorbent assay (“ELISA”) is a highly sensitive assay technique for detection and measurement of antigens or antibodies in solution. The assay uses enzyme-linked antigens or antibodies to amplify an antigen-antibody reaction. A single enzyme-linked antibody-antigen complex can convert orders of magnitude more of colorless substrate molecules into detectable colored products, thus considerably amplifying the original antigen-antibody reaction. The antigen or antibody is adsorbed onto the surface of the well of a microtiter plate, and all the relevant reactions take place in solution inside the well. While the following protocol will be easily understood by those skilled in the art, for a more detailed explanation please see Konishi, E. and Uehara, K. Enzyme-linked immunosorbent assay for quantifying antigens of Dermatophagoides farinae and D. pteronyssinus (Acari: Pyroglyphidae) in house dust samples, 1990, Entomologist Society of America, 27 (6), p. 993-998.
(§2) It is understood that those skilled in the art of allergen suppression will be aware of numerous variations to the protocol given below. For example, the monoclonal antibody may be substituted with a similar antibody, for example Der f 1 for Der f 2. But a standard, in this case water, is used and the results for the samples that contain active ingredients are normalized against the standard and the results reported as percentage of allergen remaining. That is, the amount of allergen that is not neutralized. Thus, the allergen neutralization results for similar, but not identical antibodies should be substantially the same when normalized to the standard. Both Der f 1 and Der f 2 were tested for various compositions. Der f 1 was chosen as the standard for the present Efficacy Determination Protocol.
(§3) At least two samples are prepared. One sample contains only distilled water and samples of one or more allergen neutralization compositions containing the allergen neutralization active, for example Al2(SO4)3, tannin, etc. The samples are all treated according to the same protocol, and the distilled water sample is used as the control. All samples are prepared as follows:
(§4) 1) Add 1.0 ml of 20 ug/ml Dermatophagoides farinae mite extract to 0.8 ml of the sample composition (either the allergen neutralization composition or water for the control). Mix well and let sit for 1 hour at room temp.
(§5) 2) Add 2.2 ml of 20% skim milk in Phosphate Buffer Saline (PBS).
(§6) 3) Mix well by vortexing and centrifuge at 12000 rpm (approx. 17000×g) for 1 hour.
(§7) 4) The supernatant is used for the ELISA protocol.
(§8) Each well of a microplate is coated at 4° C. overnight with 100 μl of Der f 2 monoclonal antibody (clone 15E11, from Asahi Breweries., AB-A-4) at a protein concentration of 2 μg per ml of Phosphate Buffer Saline (PBS), pH 7.4 containing 0.1% sodium azide. The monoclonal antibody is discarded and the plate is incubated with 100 μl of 1% BSA PBS containing 0.1% sodium azide for 1 hour. The plate is washed 3 times with PBS containing 0.05% Tween 20 (PBS-T). 100 μl of an allergen sample is added and incubated for 1 hour at 37° C.
(§9) Use 3×dilutions of a reference Dermatophagoides farinae crude extract (commercially available from LSL) to make the standard curve. The curve is made using 6.9 nanogram-mite extract equivalent/ml to 5 microgram-mite extract equivalent/ml. Wash plate with PBS-T for 3 times. 100 μl of Horse Radish Peroxidase (HRP) conjugated anti Der f 2 antibody (clone 13A4) is added at 40 ng/ml and the plate is incubated at 37° C. for 1 hour. The plate is then washed with PBS-T 3 times and then washed with water 3 times. The wells are incubated with 100 μl of o-phenylene diamine at 2.0 mg/ml of 0.1M phosphate buffer (pH 6.2) containing 0.03% H2O2. The enzyme reaction is terminated by adding 50 μl of 2 M H2SO4.
(§10) The absorbance of the sample is read at 490 nm with a cell length of 1 cm. […]

Der f 2 = target: T2, Der f 2 (Dermatophagoides farinae, UniProt Q00855); experiment: ELISA efficacy determination protocol, allergen neutralization versus Der f 2; type: biochemical; details: 0.26 wt.% active ion in composition before sample preparation, pH 3.5, normalized to water control
T2 construct: Add 1.0 ml of 20 ug/ml Dermatophagoides farinae mite extract; from tissue; host or cells: Dermatophagoides farinae mite extract (crude)
T2 sequence (Q00855 18-146): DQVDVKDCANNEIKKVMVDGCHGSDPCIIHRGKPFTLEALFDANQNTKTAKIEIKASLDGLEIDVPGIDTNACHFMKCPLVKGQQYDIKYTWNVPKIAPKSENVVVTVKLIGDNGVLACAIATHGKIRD
Excerpt: as §1, §2, §3, §4, §5, §6, §7, §8, §9, §10

| Compound | % of Allergen Neutralized (Der f 1) | % of Allergen Neutralized (Der f 2) | performance at deactivating dust mite allergens (Der f 1; statement in words on Table I) |
| --- | --- | --- | --- |
| O=S(=O)([O-])[O-].O=S(=O)([O-])[O-].O=S(=O)([O-])[O-].[Al+3].[Al+3] [Al2(SO4)3] | 66% | 6% | – |
| CC(O)C(=O)[O][Al]([O]C(=O)C(C)O)[O]C(=O)C(C)O (stereo not shown) [Al Lactate, reference compound] | 30% | 17% | – |
| O=[N+]([O-])[O-].O=[N+]([O-])[O-].O=[N+]([O-])[O-].[Al+3] [Al(NO3)3] | 93% | 50% | – |
| [Cl][Al]([Cl])[Cl] [AlCl3] | 85% | 17% | – |
| O=S(=O)([O-])[O-].O=S(=O)([O-])[O-].[Al+3].[K+] [AlK(SO4)2] | 65% | 23% | – |
| aluminum chlorohydrate [Al(OH)Cl2, reference compound] | 59% | 3% | relatively poor performance |
